From patent US20130037709A1, “Method for Clinically Monitoring Niacin and Niacin Metabolites in Serum or Plasma” (priority 2010, published 2013)

Experiments:
[1] = Stability in plasma
Description: (§1) Nicotinic acid, nicotinamide and nicotinuric acid are stable in plasma when frozen (at −20±5° C.) for 64 days and after 3 freeze/thaw cycles. When kept at room temperature, nicotinic acid in plasma becomes unstable after 24 hours.

[2] = Long term storage in tubes (glass vs polypropylene); assay type: in vitro ADME
Source text: Most preferred are Vacutainer tubes containing lithium-heparin as an anticoagulant.

[3] = remark: listed apart in the source
Description: as §1

[4] = system: NAD and NADP in whole blood; details: individuals undergoing niacin therapy; average pretherapy value 175; cited from earlier work

SMILES	stability in plasma after freeze/thaw cycles ([1]; plasma, after 3 freeze/thaw cycles)	time stable in plasma when frozen ([1]; plasma, frozen at −20±5° C.) [days]	change in concentration on long term storage in polypropylene tubes [2]	time stable in plasma when frozen ([1]; 64 days) [days]	stability in plasma after freeze/thaw cycles ([1]; plasma)	time stable in serum when refrigerated (refrigerated) [days]	time stable in serum at room temperature (room temperature) [days]	time after which unstable in plasma at room temperature ([1]; 24 hours) [h]	stability in fresh whole blood [3]	average niacin number after niacin supplements [4]
O=C(O)CNC(=O)c1cccnc1 [nicotinuric acid]	stable	64	–	–	–	–	–	–	–	–
NC(=O)c1cccnc1 [nicotinamide]	–	–	significant changes in the concentration	64	stable	–	–	–	–	–
O=C(O)c1cccnc1 [nicotinic acid, pyridine 3-carboxylic acid]	–	–	–	64	stable	15	15	24	neither nicotinic acid nor the active metabolites were stable	665
